Measurements: patent US20040077879A1, “Bis (amino acid) molecular scaffolds” (priority 2002, published 2004)
Converted amounts (≈) assume the structure as drawn. Like-named read-outs stand apart in the source and are kept apart here.

Assay: Solubility (dissolved, centrifuged, HPLC peak integrated relative to a tyrosine standard)
Type: physicochemical
Source text: Pure three-mer scaffolds and five-mer scaffolds with extended rod-like structures in useful amounts have been synthesized. Three units of building block 1:pro4(2S4S) (Sequence 1) were assembled to form the molecular rod 19 using sequential solid phase synthesis on a 46 μmole scale (Scheme 4). The synthesis took place on an AM resin with a Rink Amide linker available from Novabiochem. […] After coupling three monomers, an Fmoc-Tyr(t-Bu)-OAt residue was coupled to increase the hydrophobicity of the final scaffold so that it would bind to a C18 column. After removal of the tyrosine Fmoc group, the amine terminus rapidly attacked the adjacent methyl ester to form a diketopiperazine […] (indicated in the sequence as cyclo-(Tyr)). The flexible oligomer 17 was cleaved from the resin and its mass was confirmed by reverse phase liquid chromatography with mass spectrometry (RP-LCMS). The carboxybenzyl (Cbz) groups were then removed by hydrogenolysis to obtain 18. The flexible oligomer 18 was converted into the rigidified scaffold 19 through the parallel formation of two diketopiperazine rings by exposure to 20% piperidine/DMF over 48 hours at 4° C.[25] […] Solubility was measured by dissolving the compound in 0.1% TFA, centrifuging it, injecting the solution into an HPLC and integrating the resulting peak relative to a tyrosine standard. […]

| solubility (water, read-out: soluble in water) [µg/mL] | solubility (10% D2O/H2O, unpurified material, read-out: soluble in 10% D2O/H2O) [µg/mL] | Compound |
| --- | --- | --- |
| > 5000 | – | NC(=O)[C@@H]1C[C@@]2(CN1)NC(=O)[C@@H]1C[C@@]3(CN1C2=O)NC(=O)[C@@H]1C[C@@]2(CN1C3=O)NC(=O)[C@H](Cc1ccc(O)cc1)NC2=O [scaffold 19] |
| – | 5000 (≈ 5.54 mM) | COC(=O)[C@]1(N)C[C@H]2C(=O)N[C@]3(C[C@H]4C(=O)N[C@]5(C[C@H]6C(=O)N[C@]7(C[C@H]8C(=O)N[C@@]9(CN[C@H](C(=O)N[C@@H](Cc%10ccc(O)cc%10)C(N)=O)C9)C(=O)N8C7)C(=O)N6C5)C(=O)N4C3)C(=O)N2C1 [scaffold 20] |
